Data published in paper PMC5537699 (ACS Omega, 2017).
Read-outs that look alike come from different tables or passages of the source. Values belong to the compound of their own block, whether it stands above or below them.

Tests used:
[1] = target: pig kidney Na+/K+-ATPase (PKE) (Sus scrofa, UniProt P05024); test: Na+/K+-ATPase activity assay, purified pig kidney enzyme; format: biochemical; details: for Ki: 1% DMSO, PKE-1 or PKE-2, optimal turnover conditions (Figure 3)
[2] = test system: purified PKE (pig kidney Na+/K+-ATPase); details: ref 11 (Laursen et al., their Figure 3); cited from earlier work
[3] = target: human kidney Na+/K+-ATPase (HKE) (Homo sapiens, UniProt P05023); test: Na+/K+-ATPase activity assay, purified human kidney enzyme; format: biochemical; details: for Ki: read-out: Ki, inhibition of Na+/K+-ATPase activity of HKE-1, HKE-1, 1% DMSO, optimal turnover conditions (Figure 4A)
[4] = nearly constant levels by appropriate dosage regimens; cited from earlier work
[5] = test system: recombinant human kidney enzyme (Na+/K+-ATPase); details: ref 14 (Katz et al., their Table 1); cited from earlier work
[6] = read-out: Ki, inhibition of Na+/K+-ATPase activity of PKE

SMILES: C[C@]12C[C@@H](O)[C@H]3[C@@H](CC[C@]4(O)C[C@@H](O)C[C@@H](O)[C@]34CO)[C@@]1(O)CC[C@@H]2C1=CC(=O)OC1 [ouabagenin]
- extent of inhibition of Na+/K+-ATPase activity ([1]; PKE (Figure 3)): complete inhibition
- fold less potent than ouabain in Na+/K+-ATPase activity assays ([1]; PKE (Figure 3)): about 3 fold
- Ki [1, 6]: 3070 ± 230 nM
- extent of inhibition of the enzyme [2]: only a partial inhibitor
- fold less potent than ouabain by relative binding constants [2]: about 800 fold
- Ki [3]: 4400 ± 270 nM

- Ki ([1]; Ki, inhibition of Na+/K+-ATPase activity of PKE): 1950 ± 150 nM
SMILES: C[C@H]1O[C@@H](O[C@H]2[C@@H](O)C[C@H](O[C@H]3[C@@H](O)C[C@H](O[C@H]4CC[C@@]5(C)[C@H](CC[C@@H]6[C@@H]5C[C@@H](O)[C@]5(C)[C@@H](C7=CC(=O)OC7)CC[C@]65O)C4)O[C@@H]3C)O[C@@H]2C)C[C@H](O)[C@@H]1O [digoxin]
- blood levels when used clinically [4]: 0.64 to 1.15 nM

SMILES: C[C@@H]1O[C@@H](O[C@H]2C[C@@H](O)[C@]3(CO)[C@H]4[C@H](O)C[C@]5(C)[C@@H](C6=CC(=O)OC6)CC[C@]5(O)[C@@H]4CC[C@]3(O)C2)[C@H](O)[C@H](O)[C@H]1O [ouabain]
- preincubation time sufficient to obtain the maximal inhibitory effect ([1]; PKE-1, incubation times 10–60 min, 0.25–1000 μM): 10 min
- ouabain sensitivity of large-scale PKE preparation versus single kidney PKEs ([1]; large-scale PKE, specific activity 1035 μmol Pi mg–1 h–1, results not shown): not significantly different

SMILES: C[C@]12CC[C@H](O)C[C@@]1(O)CC[C@@H]1[C@@H]2CC[C@]2(C)[C@@H](c3ccc(=O)oc3)C[C@H]3O[C@]132 [MBG, marinobufagenin]
- Ki [1, 6]: 1500 ± 120 nM
- fold less potent than ouabain by relative binding constants [5]: about 200 fold
- potency relative to ouabain in Na+/K+-ATPase activity assays ([3]; HKE-1 (Figure 4A)): equally potent
- Ki [3]: 1070 ± 40 nM
